Experimental data as given in ChEMBL document CHEMBL1933025, “Discovery and optimization of thieno[2,3-d]pyrimidines as B-Raf inhibitors” (Bioorg Med Chem Lett, 2012).

Test: Oral bioavailability in CD IGS rat at 10 mg/kg measured after 26 hrs
Type: ADME, organism-based
Details: in vivo

bioavailability	SMILES
0.3%	NC(=O)c1sc2ncnc(-c3cccc(NC(=O)Nc4ccc(C(F)(F)F)cc4)c3)c2c1N
17%	COc1cncc(-c2nc(NC(C)(C)CO)nc3sc(C(N)=O)c(N)c23)c1
